Experimental data reported in patent US20250367329A1, “GENE THERAPY FOR TREATING MITOCHONDRIAL STRESS” (YISSUM RESEARCH DEVELOPMENT COMPANY OF THE HEBREW …, priority 2023, published 2025).

System: E6/E7LOW human hepatocytes
Assay: Puromycin toxicity curves, LIVE/DEAD assay
Type: cell-based
Settings: 653 (female) genotype
Experimental: E6/E7LOW human hepatocytes puromycin toxicity curves: Puromycin (13884, Cayman chemical) was two-fold serially diluted from 10 μg/ml to 0.3 μg/ml in proliferation medium and applied to E6/E7LOW human hepatocytes growing in 96-well plate format. The cells were monitored and imaged daily and on the 3rd day post exposure were analyzed with a LIVE/DEAD assay (L3224, ThermoFischer). The puromycin concentration killing practically all cells in ˜3 days was defined as 2.5 μg/ml for the 653 (female) genotype and 5 µg/ml for the 422 (male) genotype cells.

## COc1ccc(C[C@H](N)C(=O)N[C@H]2[C@@H](O)[C@H](n3cnc4c(N(C)C)ncnc43)O[C@@H]2CO)cc1 [Puromycin]
  puromycin concentration killing practically all cells in ˜3 days: 2.5 µg/mL
